Measurements from PubChem BioAssay AID1963861 (Molecular Pharmacology Branch, DTP, NCI, 2024).

Tested on: 885724-159-R-J1-PDC KRAS PDC multicell spheroid viability
Assay: Anticancer human tumor 885724-159-R-J1-PDC patient-derived pancreatic adenocarcinoma cell line growth inhibition [KRAS2]
Conditions: for IC50: curve of first compound; for viability, T/C: stronger effect = lower value
How it was run: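 Combination screen of spheroid viability in tumor-cell co-cultures with endothelial (HUVEC) and mesenchymal stem cell stroma. Each agent was tested in half-log dilutions, topping at clinical Cmax or at 10 microM without a known Cmax.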

[1] = second compound 0.1 µM, first compound 0.0316 µM
[2] = second compound 0.1 µM, first compound 0.1 µM
[3] = second compound 0.1 µM, first compound 0.316 µM
[4] = second compound 0.1 µM, first compound 1 µM
[5] = second compound 0.1 µM, first compound 3.16 µM
[6] = second compound 0.1 µM, first compound 10 µM
[7] = second compound 0.316 µM, first compound 0.0316 µM
[8] = second compound 0.316 µM, first compound 0.1 µM
[9] = second compound 0.316 µM, first compound 0.316 µM
[10] = second compound 0.316 µM, first compound 1 µM
[11] = second compound 0.316 µM, first compound 3.16 µM
[12] = second compound 0.316 µM, first compound 10 µM
[13] = second compound 1 µM, first compound 0.0316 µM
[14] = second compound 1 µM, first compound 0.1 µM
[15] = second compound 1 µM, first compound 0.316 µM
[16] = second compound 1 µM, first compound 1 µM
[17] = second compound 1 µM, first compound 3.16 µM
[18] = second compound 1 µM, first compound 10 µM
[19] = second compound 3.16 µM, first compound 0.0316 µM
[20] = second compound 3.16 µM, first compound 0.1 µM
[21] = second compound 3.16 µM, first compound 0.316 µM
[22] = second compound 3.16 µM, first compound 1 µM
[23] = second compound 3.16 µM, first compound 3.16 µM
[24] = second compound 3.16 µM, first compound 10 µM
[25] = second compound 10 µM, first compound 0.0316 µM
[26] = second compound 10 µM, first compound 0.1 µM
[27] = second compound 10 µM, first compound 0.316 µM
[28] = second compound 10 µM, first compound 1 µM
[29] = second compound 10 µM, first compound 3.16 µM
[30] = second compound 10 µM, first compound 10 µM
[31] = second compound 0.1 µM, first compound 0.01 µM
[32] = second compound 0.316 µM, first compound 0.01 µM
[33] = second compound 1 µM, first compound 0.01 µM
[34] = second compound 3.16 µM, first compound 0.01 µM
[35] = second compound 10 µM, first compound 0.01 µM
[36] = second compound 0.1 µM, first compound 0.00316 µM
[37] = second compound 0.316 µM, first compound 0.00316 µM
[38] = second compound 1 µM, first compound 0.00316 µM
[39] = second compound 3.16 µM, first compound 0.00316 µM
[40] = second compound 10 µM, first compound 0.00316 µM
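Further: spheroids exposed to agents for 7 days before readout.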

| SMILES | IC50 (second compound 0.1 µM) | IC50 (second compound 0.316 µM) | IC50 (second compound 1 µM) | IC50 (second compound 3.16 µM) | IC50 (second compound 10 µM) | viability, T/C [1] | viability, T/C [2] | viability, T/C [3] | viability, T/C [4] | viability, T/C [7] | viability, T/C [8] | viability, T/C [9] | viability, T/C [10] | viability, T/C [13] | viability, T/C [14] | viability, T/C [15] | viability, T/C [19] | viability, T/C [20] | viability, T/C [25] | viability, T/C [26] | also measured |
| --- | --- | --- | --- | --- | --- | --- | --- | --- | --- | --- | --- | --- | --- | --- | --- | --- | --- | --- | --- | --- | --- |
| CC(C)NCC(C(=O)N1CCN(c2ncnc3c2C(C)CC3O)CC1)c1ccc(Cl)cc1 (stereo not given) + CNCc1ccccc1-c1csc(C(C)Nc2nc(C)nc3cc(OC)c(OC)cc23)c1 | > 10000 nM | > 10000 nM | 4190 nM | < 31.6 nM | < 31.6 nM | 87.4% | 82.9% | 76% | 70.8% | 87.4% | 77.3% | 67.7% | 72.7% | 94% | 76.9% | 64.9% | 1.32% | 0.9% | 0.17% | 0.16% | viability, T/C [5]: 76.8%; viability, T/C [6]: 57.1%; viability, T/C [11]: 78.2%; viability, T/C [12]: 53.1%; viability, T/C [16]: 66.3%; viability, T/C [17]: 68.8%; viability, T/C [18]: 26.3%; viability, T/C [21]: 1.56%; viability, T/C [22]: 0.7%; viability, T/C [23]: 0.43%; viability, T/C [24]: 0.59%; viability, T/C [27]: 0.17%; viability, T/C [28]: 0.31%; viability, T/C [29]: 0.16%; viability, T/C [30]: 0.23% |
| CC1COCCN1c1cc(-c2ccnn2C)c2ccnc(-c3ccn[nH]3)c2n1 (stereo not given) + CNCc1ccccc1-c1csc(C(C)Nc2nc(C)nc3cc(OC)c(OC)cc23)c1 | > 3160 nM | > 3160 nM | > 3160 nM | < 10 nM | < 10 nM | 85.3% | 80.1% | 61.4% | 58.8% | 90.4% | 73.8% | 64.2% | 57.8% | 84.4% | 75.1% | 64.7% | 0.77% | 0.58% | 0.23% | 0.26% | viability, T/C [31]: 108%; viability, T/C [5]: 58.8%; viability, T/C [32]: 108%; viability, T/C [11]: 57.4%; viability, T/C [33]: 106%; viability, T/C [16]: 55.7%; viability, T/C [17]: 56.8%; viability, T/C [34]: 2.14%; viability, T/C [21]: 0.86%; viability, T/C [22]: 1.55%; viability, T/C [23]: 1.97%; viability, T/C [35]: 0.21%; viability, T/C [27]: 0.24%; viability, T/C [28]: 0.22%; viability, T/C [29]: 0.28% |
| CCN1CCN(Cc2ccc(Nc3ncc(F)c(-c4cc(F)c5nc(C)n(C(C)C)c5c4)n3)nc2)CC1 + CNCc1ccccc1-c1csc(C(C)Nc2nc(C)nc3cc(OC)c(OC)cc23)c1 | > 1000 nM | > 1000 nM | > 1000 nM | < 3.16 nM | < 3.16 nM | 92.2% | 86.8% | 87.2% | 96.9% | 78.2% | 83.4% | 94% | 90.9% | 76.6% | 78.3% | 74.8% | 0.79% | 4.1% | 0.2% | 0.19% | viability, T/C [36]: 110%; viability, T/C [31]: 100%; viability, T/C [37]: 106%; viability, T/C [32]: 94.8%; viability, T/C [38]: 95%; viability, T/C [33]: 96.3%; viability, T/C [16]: 71.2%; viability, T/C [39]: 0.67%; viability, T/C [34]: 1.81%; viability, T/C [21]: 0.68%; viability, T/C [22]: 0.56%; viability, T/C [40]: 0.19%; viability, T/C [35]: 0.32%; viability, T/C [27]: 0.19%; viability, T/C [28]: 0.28% |
| CCNC(=O)CC1N=C(c2ccc(Cl)cc2)c2cc(OC)ccc2-n2c(C)nnc21 (stereo not given) + CNCc1ccccc1-c1csc(C(C)Nc2nc(C)nc3cc(OC)c(OC)cc23)c1 | > 10000 nM | > 10000 nM | > 10000 nM | < 31.6 nM | < 31.6 nM | 122% | 114% | 77.3% | 63.2% | 118% | 113% | 81.9% | 61.8% | 110% | 116% | 79.1% | 1.45% | 11.5% | 0.33% | 0.2% | viability, T/C [5]: 53.7%; viability, T/C [6]: 52.5%; viability, T/C [11]: 55.1%; viability, T/C [12]: 48.3%; viability, T/C [16]: 59.7%; viability, T/C [17]: 52.6%; viability, T/C [18]: 49.7%; viability, T/C [21]: 1.37%; viability, T/C [22]: 1.56%; viability, T/C [23]: 0.16%; viability, T/C [24]: 0.43%; viability, T/C [27]: 0.25%; viability, T/C [28]: 0.16%; viability, T/C [29]: 0.18%; viability, T/C [30]: 0.26% |
| CC(=O)OC12COC1CC(O)C1(C)C(=O)C(O)C3=C(C)C(OC(=O)C(O)C(NC(=O)OC(C)(C)C)c4ccccc4)CC(O)(C(OC(=O)c4ccccc4)C21)C3(C)C (stereo not given) + COc1cc2nc(C)nc(NC(C)c3cc(N)cc(C(F)(F)F)c3)c2cc1OC1CCOC1 | > 3160 nM | > 3160 nM | > 3160 nM | > 3160 nM | > 3160 nM | 116% | 113% | 122% | 135% | 112% | 116% | 125% | 120% | 130% | 127% | 132% | 104% | 121% | 105% | 119% | viability, T/C [31]: 105%; viability, T/C [5]: 132%; viability, T/C [32]: 104%; viability, T/C [11]: 126%; viability, T/C [33]: 104%; viability, T/C [16]: 142%; viability, T/C [17]: 141%; viability, T/C [34]: 95.1%; viability, T/C [21]: 111%; viability, T/C [22]: 119%; viability, T/C [23]: 119%; viability, T/C [35]: 90.2%; viability, T/C [27]: 121%; viability, T/C [28]: 117%; viability, T/C [29]: 111% |
| CN(C)C/C=C/C(=O)Nc1cc2c(Nc3ccc(F)c(Cl)c3)ncnc2cc1O[C@H]1CCOC1 + COc1cc2nc(C)nc(NC(C)c3cc(N)cc(C(F)(F)F)c3)c2cc1OC1CCOC1 | > 100 nM | > 100 nM | > 100 nM | > 100 nM | > 100 nM | 79.6% | 69.2% | – | – | 67.3% | 66.7% | – | – | 79.1% | 73.3% | – | 68% | 61.8% | 60% | 61.2% | viability, T/C (second compound 0.1 µM, first compound 0.000316 µM): 116%; viability, T/C (second compound 0.1 µM, first compound 0.001 µM): 103%; viability, T/C [36]: 97.1%; viability, T/C [31]: 88.9%; viability, T/C (second compound 0.316 µM, first compound 0.000316 µM): 98.7%; viability, T/C (second compound 0.316 µM, first compound 0.001 µM): 102%; viability, T/C [37]: 92.9%; viability, T/C [32]: 89%; viability, T/C (second compound 1 µM, first compound 0.000316 µM): 96.4%; viability, T/C (second compound 1 µM, first compound 0.001 µM): 120%; viability, T/C [38]: 110%; viability, T/C [33]: 96%; viability, T/C (second compound 3.16 µM, first compound 0.000316 µM): 88.4%; viability, T/C (second compound 3.16 µM, first compound 0.001 µM): 102%; viability, T/C [39]: 80.3%; viability, T/C [34]: 72.5%; viability, T/C (second compound 10 µM, first compound 0.000316 µM): 87.1%; viability, T/C (second compound 10 µM, first compound 0.001 µM): 85.7%; viability, T/C [40]: 75.2%; viability, T/C [35]: 63.1% |
